Assay results published in patent US9328134B2, “Carbohydrate phosphonate derivatives as modulators of glycosylation” (AMGEN INC., priority 2013, dated 2016).

Tests used:
[1] = system: cell surface protein fucosylation in CS-9 CHO cells; assay: Cell Surface Protein Fucosylation Assay (FACS with FITC-LCA); type: cell-based, Chinese hamster; details: Cricetulus griseus, 72 h, 3 days
Protocol: Cell Surface Protein Fucosylation Assay
(§1) The effect of the example compounds on cell surface protein fucosylation was measured in CS-9 CHO cells. A range of amounts of example compound was added to produce various concentrations (100 μM-0.005 uM). These were added to cells grown in batch production CHO cell media in Costar 96-well clear round bottom polypropylene plates and incubated at 37° C. in the presence of 5% CO2. Commercially available standard batch production serum free CHO media such as CD OptiCHO (Invitrogen), Power CHO (Lonza), or ExCell 325 PF CHO (commercially available from Sigma Aldrich) may be used in accordance with the assay. After 3 days, cells were analyzed by fluorescence-activated cell sorting (FACS) using FITC-Lens culinaris agglutinin (FITC-LCA, Vector Laboratories Cat#FL-1041) according to the following procedure. After 3 days, 50 uL of FITC-LCA (3 ug/mL) was added to columns 1-11 and plates were incubated for 30 minutes. Plates were then centrifuged briefly (2,000 rpm), and the medium was aspirated away. Cells were washed three times with PBS with 1% BSA, resuspended in the same buffer, and analyzed on the BD LSRii instrument. Cells were simultaneously assayed for viability using propidium iodide.
The following table includes IC50 values obtained using the procedures set forth above for the Example compounds described herein.

[2] = system: CHO cells expressing anti-TRAIL IgG1 antibody; assay: Production cultures to generate antibodies for glycan analysis (HILIC); type: cell-based, Chinese hamster
Protocol: Production Cultures to Generate Antibodies for Glycan Analysis
CHO cells expressing anti-TRAIL IgG1 antibody were seeded into serum-free growth medium in deep 24-well plates via 1:5 dilution. Any medium suitable for growth of CHO cells (i.e. PowerCHO by Lonza or OptiCHO by Invitrogen) can be used. The fucosylation inhibitor Example 1 compound was added to the cultures at inoculation at 5, 10, 20, 40, 80, 160 and 320 uM via 1:1000 dilution of stock solutions in DMSO. The cultures were placed into a shaking incubator (50 mm orbital diameter, 36° C., 5% CO2, 220 rpm). The growth and viability of the cultures were monitored throughout the length of the production assay. The cells were fed with feed medium and an amino acid supplement on days 3, 6 and 8. Cultures were harvested on day 10 via centrifugation and spent medium supernatants were submitted for titer analysis and protein A purification. Glycan analysis of purified antibodies was conducted via the HILIC assay.
To test whether daily doses of the Example 1 fucosylation inhibitor would result in higher inhibition profile, CHO cells expressing anti TRAIL IgG1 antibody were seeded into serum-free growth medium in deep 24-well plates via 1:5 dilution. The fucosylation inhibitor compound Example 1 (FIG. 2) and compound Example 3 (FIG. 3) were added to the cultures on a daily basis at 5, 10, 20, 40, 60, 80, and 100 uM levels via 1:1000 dilution of stock solutions in DMSO. The cultures were placed into a shaking incubator (50 mm orbital diameter, 36° C., 5% CO2, 220 rpm). The growth and viability of cultures were monitored throughout the length of the production assay. Starting on day 3, cells were centrifuged at 1000 rpm for 5 minutes, a fraction of the spent medium was removed and cells were replenished with the equivalent volume of production medium. Cultures were harvested on day 10 via a 10 minute centrifugation at 1000 rpm. Spent medium fractions collected during the course of the experiment were submitted for titer analysis. Spent medium fractions corresponding to select time-points were also purified on protein A. Glycan analysis of the purified antibodies is shown in FIGS. 2 and 3.
The PNGase F (New England Biolabs) enzymatically-released N-linked glycans from protein-purified anti-TRAIL IgG1 antibody were labeled with 2-aminobenzoic acid (2-AA) and separated by HILIC (hydrophilic interaction liquid chromatography) in-line with a fluorescence detector. The separation was performed using a Waters Acquity UPLC (Waters, Milford, Mass.). In-line MS, using an ion trap mass spectrometer (LTQ; Thermo Scientific, Waltham, Mass.) in positive mode, was incorporated to accommodate mass determination of species. Glycans were injected and bound to the column in high organic conditions and were then eluted with an increasing gradient of an aqueous ammonium formate buffer. Fast separation times were achieved using a […] small particle column format (Acquity UPLC BEH Glycan Column, 2.1×100 mm; Waters, Milford, Mass.). Total runtime including column re-equilibration for the MS compatible separation was 30 minutes. Glycan from cells treated with 320 uM Example 1 compound was 64% fucosylated vs. 77% for DMSO control, and contained 13% high mannose vs. 12% for DMSO control.

[3] = Cell viability by propidium iodide, run with the fucosylation assay; type: cell-based, Chinese hamster; details: Chinese hamster, 100 μM, CS-9 CHO cells, read-out: Cell Viability max activity at 100 μM
Protocol: as §1

CS-9 CHO cells [4] = assay: as above; type: cell-based, Chinese hamster; details: Cricetulus griseus, 72 h, 3 days
Protocol: as §1

[5] = Stability of inhibitor in the culture medium; type: physicochemical; details: cell culture medium
[6] = system: cell surface protein high mannose in CS-9 CHO cells; assay: Assay for Cell Surface Protein High Mannose (FACS with FITC-labeled Concanavilin A); type: cell-based, Chinese hamster; details: Cricetulus griseus, 72 h, 3 days
Protocol: Assay for Cell Surface Protein High Mannose
as §1, with “high mannose” for “fucosylation”, “FITC-labeled Concanavilin A” for “FITC-Lens culinaris agglutinin (FITC-LCA, Vector Laboratories Cat#FL-1041)”

[7] = Cell viability by propidium iodide, run with the high mannose assay; type: cell-based, Chinese hamster; details: Chinese hamster, 100 μM, CS-9 CHO cells, read-out: Cell Viability max activity at 100 μM
Protocol: as §1, with “high mannose” for “fucosylation”, “FITC-labeled Concanavilin A” for “FITC-Lens culinaris agglutinin (FITC-LCA, Vector Laboratories Cat#FL-1041)”

CS-9 CHO cells [8] = assay: as above; type: cell-based, Chinese hamster; details: Cricetulus griseus, 72 h, 3 days
Protocol: as §1, with “high mannose” for “fucosylation”, “FITC-labeled Concanavilin A” for “FITC-Lens culinaris agglutinin (FITC-LCA, Vector Laboratories Cat#FL-1041)”

Row | Stability of inhibitor in the medium [5] | Compound | IC50 [1] [µM] | Incorporation of inhibitor into antibody glycan ([2]; added to cell culture media on a daily basis, 5-100 uM) | viability at 3 days, 100 µM [3] [%] | IC50 (CS-9 CHO cells [4]) [µM] | Incorporation of inhibitor molecule into the glycan ([2]; 320 uM, HILIC with in-line MS) | Glycan high mannose content ([2]; 320 uM, anti-TRAIL IgG1 glycan, HILIC, DMSO control 12%) [%] | Glycan fucosylated ([2]; 320 uM, anti-TRAIL IgG1 glycan, HILIC, DMSO control 77%) [%] | inhibition at 320 µM ([2]; Cricetulus griseus, CHO, 240 h, 320 uM added at inoculation, anti-TRAIL IgG1, harvest day 10, read-out: Maximum inhibition of fucosylation (afucosylation)) [%] | IC50 [6] [µM] | viability at 3 days, 100 µM [7] [%] | IC50 (CS-9 CHO cells [8]) [µM]
1 |  | CC(=O)O[C@H]1[C@H](OC(C)=O)[C@H](CP(=O)(OCOC(=O)C(C)(C)C)OCOC(=O)C(C)(C)C)O[C@@H](C(F)(F)F)[C@H]1OC(C)=O [Example 3, (2R,3S,4R,5S,6R)-2-((bis((pivaloyloxy)-methoxy)phosphoryl)methyl)-6-(trifluoromethyl)tetrahydro-2H-pyran-3,4,5-triyl triacetate] | 7 | some incorporation of part of the inhibitor | 90 | > 100 |  |  |  |  |  |  | 
2 | limited stability | CC(=O)O[C@@H]1[C@H](OC(C)=O)[C@H](C)O[C@H](CP(=O)(OCOC(=O)C(C)(C)C)OCOC(=O)C(C)(C)C)[C@H]1OC(C)=O [Example 1, (2S,3S,4R,5R,6S)-2-((bis((pivaloyloxy)methoxy)phosphoryl)methyl)-6-methyltetrahydro-2H-pyran-3,4,5-triyl triacetate] | 21 |  | 94 | > 100 | No trace of the inhibitor molecule was detectable in the glycan | 13 | 64 | ~10 |  |  | 
3 |  | CC(=O)OCOP(=O)(C[C@H]1O[C@@H](C)[C@@H](OC(C)=O)[C@@H](OC(C)=O)[C@@H]1OC(C)=O)OCOC(C)=O [Example 2, (2S,3S,4R,5R,6S)-2-((bis(acetoxymethoxy)phosphoryl)methyl)-6-methyltetrahydro-2H-pyran-3,4,5-triyl triacetate] | 44 |  | 103 | > 100 |  |  |  |  |  |  | 
4 |  | CC(=O)OC[C@H]1O[C@H](CP(=O)(OCOC(=O)C(C)(C)C)OCOC(=O)C(C)(C)C)[C@@H](OC(C)=O)[C@@H](OC(C)=O)[C@@H]1OC(C)=O [Example 4, (2R,3R,4S,5S,6S)-2-(acetoxymethyl)-6-((bis((pivaloyloxy)methoxy)phosphoryl)methyl)tetrahydro-2H-pyran-3,4,5-triyl triacetate] |  |  |  |  |  |  |  |  | 33.1 | 92 | > 100
5 |  | CC(=O)N[C@@H]1[C@@H](OC(C)=O)[C@H](OC(C)=O)[C@@H](COC(C)=O)O[C@@H]1CP(=O)(OCOC(=O)C(C)(C)C)OCOC(=O)C(C)(C)C [Example 5, (((((2S,3R,4R,5S,6R)-3-acetamido-4,5-diacetoxy-6-(acetoxymethyl)tetrahydro-2H-pyran-2-yl)methyl)phosphoryl)bis(oxy))bis(methylene)bis(2,2-dimethylpropanoate)] |  |  |  |  |  |  |  |  | 3.4 | 88 | > 100
